Key:
Test in all cases: combination Emax (second highest fraction inhibited in the dose matrix, 72 h); higher = more inhibition; extreme values may be limits of the assay
[1] = system: EBC-1 (Squamous Cell Lung Carcinoma)
In short: (§1)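 Bliss excess equals the observed combination effect minus the expected value EA + EB − EA·EB, where EA and EB are the effects of each agent alone. Combination Emax is the second-highest inhibition within the matrix. Inhibition was scaled from CellTiter-Glo 2.0 luminescence, with 0 set by vehicle wells and 1 by blank wells, after 72 hours of two-drug dosing of cells plated in 1536-well plates.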

[2] = system: SNU-C1 (Colorectal Carcinoma)
In short: as §1

[3] = system: HSC-2 (Oral Cavity Carcinoma)
In short: as §1

[4] = system: NCI-H1573 (Lung Adenocarcinoma)
In short: as §1

[5] = system: KLE (Endometrial Carcinoma)
In short: as §1

[6] = system: TGBC11TKB (Gastric Carcinoma)
In short: as §1

[7] = system: HuP-T3 (Pancreatic Carcinoma)
In short: as §1

EW-13 (Ewing's Sarcoma) = system: EW-13 (Ewing's Sarcoma)
In short: as §1

IMR-5 (Neuroblastoma) = system: IMR-5 (Neuroblastoma)
In short: as §1

NB7 (Neuroblastoma) = system: NB7 (Neuroblastoma)
In short: as §1

[8] = system: MFE-319 (Endometrial Carcinoma)
In short: as §1

RPMI-7951 (Melanoma) = system: RPMI-7951 (Melanoma)
In short: as §1

[9] = system: HC-1 (Other Blood Carcinomas)
In short: as §1

[10] = system: NCI-N87 (Gastric Carcinoma)
In short: as §1

[11] = system: H-EMC-SS (Chondrosarcoma)
In short: as §1

EW-18 (Ewing's Sarcoma) = system: EW-18 (Ewing's Sarcoma)
In short: as §1

A704 (Kidney Carcinoma) = system: A704 (Kidney Carcinoma)
In short: as §1

BT-20 (Breast Carcinoma) = system: BT-20 (Breast Carcinoma)
In short: as §1

EW-3 (Ewing's Sarcoma) = system: EW-3 (Ewing's Sarcoma)
In short: as §1

Row | Compound | combination Emax [1] | combination Emax [2] | combination Emax [3] | combination Emax [4] | combination Emax [5] | combination Emax [6] | combination Emax [7] | combination Emax (EW-13 (Ewing's Sarcoma)) | combination Emax (IMR-5 (Neuroblastoma)) | combination Emax (NB7 (Neuroblastoma)) | combination Emax [8] | combination Emax (RPMI-7951 (Melanoma)) | combination Emax [9] | combination Emax [10] | combination Emax [11] | combination Emax (EW-18 (Ewing's Sarcoma)) | combination Emax (A704 (Kidney Carcinoma)) | combination Emax (BT-20 (Breast Carcinoma)) | combination Emax (EW-3 (Ewing's Sarcoma))
1 | CN(C)CCCOc1ccc(-c2ccc3ncc4c(c3c2)n(C2CCOCC2)c(=O)n4C)cn1 [AZD0156] + C=CCn1c(=O)c2cnc(Nc3ccc(N4CCN(C)CC4)cc3)nc2n1-c1cccc(C(C)(C)O)n1 [AZD1775] (first compound max 1 µM, partner max 1 µM) | 0.165 | 0.295 | 0.54 | 0.159 | 0.531 | 0.895 | 0.205 | 0.444 | 0.741 | 0.6 | 0.63 | 0.687 | 0.994 | 0.726 | 0.346 | 0.556 | 0.379 | 0.476 | 0.357
2 | CN(C)CCCOc1ccc(-c2ccc3ncc4c(c3c2)n(C2CCOCC2)c(=O)n4C)cn1 [AZD0156] + CCN(CCO)CCCOc1ccc2c(Nc3cc(CC(=O)Nc4cccc(F)c4)[nH]n3)ncnc2c1 [AZD2811] (first compound max 1 µM, 7x7, partner max 1 µM) | 0.171 | 0.205 | 0.289 | 0.106 | 0.334 | 0.325 | 0.0599 | 0.332 | 0.967 | 0.276 | 0.147 | 0.257 | 0.379 | 0.253 | 0.367 | 0.678 | 0.156 | 0.198 | 0.34
3 | CN(C)CCCOc1ccc(-c2ccc3ncc4c(c3c2)n(C2CCOCC2)c(=O)n4C)cn1 [AZD0156] + C[C@@H]1COCCN1C2=NC(=NC(=C2)C3(CC3)[S@](=N)(=O)C)C4=C5C=CNC5=NC=C4 [AZD6738] (first compound max 1 µM, 7x7, partner max 10 µM) | 0.535 | 0.489 | 0.696 | 0.58 | 0.469 | 0.799 | 0.658 | 0.581 | 0.926 | 0.804 | 0.683 | 0.886 | 0.77 | 0.704 | 0.402 | 0.727 | 0.392 | 0.449 | 0.751
4 | C=CCn1c(=O)c2cnc(Nc3ccc(N4CCN(C)CC4)cc3)nc2n1-c1cccc(C(C)(C)O)n1 [AZD1775] + C[C@@H]1COCCN1C2=NC(=NC(=C2)C3(CC3)[S@](=N)(=O)C)C4=C5C=CNC5=NC=C4 [AZD6738] (first compound max 1 µM, partner max 10 µM) | 0.616 | 0.624 | 0.832 | 0.694 | 0.59 | 0.922 | 0.705 | 0.653 | 0.986 | 0.934 | 0.825 | 0.951 | 0.971 | 0.806 | 0.606 | 0.66 | 0.57 | 0.718 | 0.804
5 | C=CCn1c(=O)c2cnc(Nc3ccc(N4CCN(C)CC4)cc3)nc2n1-c1cccc(C(C)(C)O)n1 [AZD1775] + O=C(c1cc(Cc2n[nH]c(=O)c3ccccc23)ccc1F)N1CCN(C(=O)C2CC2)CC1 [Olaparib] (first compound max 1 µM, partner max 10 µM) | 0.272 | 0.313 | 0.63 | 0.325 | 0.456 | 0.794 | 0.274 | 0.622 | 0.83 | 0.632 | 0.619 | 0.766 | 0.983 | 0.711 | 0.333 | 0.522 | 0.462 | 0.518 | 0.661
6 | CCN(CCO)CCCOc1ccc2c(Nc3cc(CC(=O)Nc4cccc(F)c4)[nH]n3)ncnc2c1 [AZD2811] + C=CCn1c(=O)c2cnc(Nc3ccc(N4CCN(C)CC4)cc3)nc2n1-c1cccc(C(C)(C)O)n1 [AZD1775] (first compound max 1 µM, partner max 1 µM) | 0.24 | 0.151 | 0.43 | 0.178 | 0.564 | 0.818 | 0.197 | 0.355 | 0.998 | 0.662 | 0.578 | 0.697 | 0.983 | 0.66 | 0.257 | 0.635 | 0.392 | 0.455 | 0.402
7 | CCN(CCO)CCCOc1ccc2c(Nc3cc(CC(=O)Nc4cccc(F)c4)[nH]n3)ncnc2c1 [AZD2811] + C[C@@H]1COCCN1C2=NC(=NC(=C2)C3(CC3)[S@](=N)(=O)C)C4=C5C=CNC5=NC=C4 [AZD6738] (first compound max 1 µM, 7x7, partner max 10 µM) | 0.32 | 0.435 | 0.68 | 0.479 | 0.387 | 0.791 | 0.589 | 0.638 | 1 | 0.603 | 0.668 | 0.856 | 0.789 | 0.744 | 0.412 | 0.743 | 0.43 | 0.443 | 0.724
8 | CCN(CCO)CCCOc1ccc2c(Nc3cc(CC(=O)Nc4cccc(F)c4)[nH]n3)ncnc2c1 [AZD2811] + O=C(c1cc(Cc2n[nH]c(=O)c3ccccc23)ccc1F)N1CCN(C(=O)C2CC2)CC1 [Olaparib] (first compound max 1 µM, 7x7, partner max 10 µM) | 0.216 | 0.276 | 0.439 | 0.152 | 0.16 | 0.408 | 0.163 | 0.701 | 0.962 | 0.473 | 0.245 | 0.328 | 0.681 | 0.293 | 0.236 | 0.667 | 0.188 | 0.286 | 0.675
9 | C[C@@H]1COCCN1c1cc(C2([S@](C)(=N)=O)CC2)nc(-c2ccnc3[nH]ccc23)n1 [AZD6738] + O=C(c1cc(Cc2n[nH]c(=O)c3ccccc23)ccc1F)N1CCN(C(=O)C2CC2)CC1 [Olaparib] (first compound max 10 µM, 7x7, partner max 10 µM) | 0.487 | 0.347 | 0.721 | 0.531 | 0.482 | 0.796 | 0.705 | 0.757 | 0.958 | 0.944 | 0.567 | 0.886 | 0.76 | 0.693 | 0.419 | 0.666 | 0.438 | 0.415 | 0.962
10 | Cc1cc2ncnn2cc1Nc1ncc2c(n1)n(C1CCOCC1)c(=O)n2C [AZD7648] + C=CCn1c(=O)c2cnc(Nc3ccc(N4CCN(C)CC4)cc3)nc2n1-c1cccc(C(C)(C)O)n1 [AZD1775] (first compound max 10 µM, partner max 1 µM) | 0.209 | 0.392 | 0.596 | 0.308 | 0.508 | 0.825 | 0.283 | 0.332 | 0.781 | 0.575 | 0.68 | 0.704 | 0.992 | 0.731 | 0.53 | 0.553 | 0.478 | 0.559 | 0.329
11 | Cc1cc2ncnn2cc1Nc1ncc2c(n1)n(C1CCOCC1)c(=O)n2C [AZD7648] + CCN(CCO)CCCOc1ccc2c(Nc3cc(CC(=O)Nc4cccc(F)c4)[nH]n3)ncnc2c1 [AZD2811] (first compound max 10 µM, 7x7, partner max 1 µM) | 0.18 | 0.351 | 0.547 | 0.214 | 0.382 | 0.327 | 0.161 | 0.291 | 0.98 | 0.406 | 0.278 | 0.476 | 0.737 | 0.44 | 0.545 | 0.68 | 0.247 | 0.426 | 0.397
12 | Cc1cc2ncnn2cc1Nc1ncc2c(n1)n(C1CCOCC1)c(=O)n2C [AZD7648] + CN(C)CCCOc1ccc(-c2ccc3ncc4c(c3c2)n(C2CCOCC2)c(=O)n4C)cn1 [AZD0156] (first compound max 10 µM, 7x7, partner max 1 µM) | 0.218 | 0.316 | 0.398 | 0.15 | 0.36 | 0.247 | 0.141 | 0.325 | 0.239 | 0.213 | 0.311 | 0.396 | 0.386 | 0.477 | 0.545 | 0.391 | 0.215 | 0.413 | 0.386
13 | Cc1cc2ncnn2cc1Nc1ncc2c(n1)n(C1CCOCC1)c(=O)n2C [AZD7648] + C[C@@H]1COCCN1C2=NC(=NC(=C2)C3(CC3)[S@](=N)(=O)C)C4=C5C=CNC5=NC=C4 [AZD6738] (first compound max 10 µM, 7x7, partner max 10 µM) | 0.293 | 0.38 | 0.596 | 0.592 | 0.419 | 0.861 | 0.606 | 0.564 | 0.951 | 0.572 | 0.726 | 0.912 | 0.616 | 0.718 | 0.475 | 0.636 | 0.395 | 0.479 | 0.755
14 | CS(=O)(=O)CCNCc1ccc(-c2ccc3ncnc(Nc4ccc(OCc5cccc(F)c5)c(Cl)c4)c3c2)o1 [Lapatinib] + NC1(c2ccc(-c3nc4ccn5c(=O)[nH]nc5c4cc3-c3ccccc3)cc2)CCC1 [MK-2206] (first compound max 10 µM, 7x7, partner max 10 µM) | – | 0.631 | 0.987 | 0.723 | – | 0.418 | – | – | – | 0.821 | 0.946 | – | – | 0.977 | 0.316 | – | – | – | 0.87

— the supplement of paper PMC11061612
